Measured values as given in patent US10940139B2, “Compounds that interact with the Ras superfamily for the treatment of cancers, inflammatory diseases, rasopathies, and fibrotic disease” (Shy Therapeutics LLC, priority 2017, dated 2021).

Tested on: MIA-PACA2 pancreatic cancer cell lines
Assay: Cell proliferation assay, alternate assay conditions (DAPI fluorescence)
Type: cell-based
Conditions: Homo sapiens, MIA PaCa-2; * = tested at 10 μM, alternate conditions, MIA-PACA2
Protocol: Cell lines: Tumor-derived pancreatic cancer cell lines MIA-PACA2 were purchased from ATCC and grown in complete DMEM-High Glucose medium supplemented with penicillin (100 U/mL), streptomycin (100 μg/mL), and 10% heat-inactivated FBS at 37° C. in a humidified incubator with 5% CO2.
Method: Cells are plated at 4000 cells/well density in 96-wells plate. The next day tested small molecules are added to the cells in the final concentration of 10 μM in the presence of 0.3% DMSO and 10% FBS. After small molecules addition, cells are incubated for 4 days at 37° C. in a humidified incubator with 5% CO2. For IC50 value determination, serial dilutions of compounds were added to cells under the same conditions.
Assay: At the end of the incubation period, cell cultures are fixed with a 50-50 mixture (v/v) acetone-methanol for 10 minutes at −20° C., followed by rehydration in PBS for 10 minutes at room temperature. After rehydration, cells are stained with DAPI (1 μg/ml) in PBS for 10 minutes at room temperature, followed by 3 washes with PBS. After staining, DAPI fluorescence is recorded (358 nm excitation/461 nm emission) with the 96-well plate reader Molecular Devices Spectramax M3; degree of small mole-cule-dependent proliferation inhibition is calculated from raw data assuming No Serum cells value as 100%.

| Compound | inhibition at 10 µM [%] |
| --- | --- |
| COc1nc(-c2ccccn2)nc2c(-c3cccc(O)n3)csc12 | 76 to 100 |
| CCC(C)Nc1nc(-c2ccccn2)nc2sc(-c3ccncc3)c(-c3ccccc3)c12 (centres unmarked) | 51 to 75 |
| O=C(NCCc1ccncn1)c1csc2nc(-c3ccccn3)nc(N3CCOCC3)c12 [drawing 1796] | 1 to 25 |
| CC(C)c1nn(C)cc1-c1csc2c(O)nc(-c3ccccn3)nc12 [drawing 1797] | 76 to 100 |
| CN(C)CCOc1cccc(-c2csc3c(O)nc(-c4ccccn4)nc23)c1 [drawing 1798] | 76 to 100 |
| Oc1nc(-c2ccccn2)nc2c(-c3cc(CN4CCCC4)ccc3F)csc12 [drawing 1799] | 76 to 100 |
| N#Cc1cccc(-c2csc3c(O)nc(-c4ccccn4)nc23)c1 [drawing 1800] | 76 to 100 |
| Oc1nc(-c2ccccn2)nc2c(-c3cncnc3)csc12 [drawing 1801] | 0 |
| Cc1c(-c2csc3c(O)nc(-c4ccccn4)nc23)cnn1C [drawing 1802] | 76 to 100 |
| Cc1nn(C(C)C)cc1-c1csc2c(O)nc(-c3ccccn3)nc12 [drawing 1803] | 76 to 100 |
| Oc1nc(-c2ccccn2)nc2c(-c3cncc(C(F)F)c3)csc12 [drawing 1804] | 76 to 100 |
| COc1ccc(CCC(=O)Nc2nc(-c3ccccn3)nc3sccc23)cn1 [drawing 1805] | 76 to 100 |
| Cc1sc2c(O)nc(-c3ccccn3)nc2c1-c1ccncc1 [drawing 1806] | 76 to 100 |
| Cc1sc2c(O)nc(-c3ccccn3)nc2c1C(=O)N1CCN(c2ccccc2)CC1 [drawing 1807] | 76 to 100 |
| Cc1sc2c(O)nc(-c3ccccn3)nc2c1C(=O)N1CCN(c2ccccc2)CC1C (centres unmarked) [drawing 1808] | 76 to 100 |
| Cc1sc2c(O)nc(-c3ccccn3)nc2c1C(=O)N1CCN(Cc2cccc(O)c2)CC1 [drawing 1809] | 25 to 50 |
| COC(=O)c1c(C)sc2c(O)nc(-c3ccccn3)nc12 [drawing 1810] | 25 to 50 |
| Oc1nc(-c2ccccn2)nc2c(C3CCCCC3)csc12 [drawing 1811] | 76 to 100 |
| Oc1nc(-c2ccccn2)nc2c(C3CCCC3)csc12 [drawing 1812] | 76 to 100 |
| CC(C)Cc1csc2c(O)nc(-c3ccccn3)nc12 [drawing 1813] | 76 to 100 |
| COc1cnc(-c2cn(C)cn2)nc1O [drawing 1814] | 1 to 25 |
| COc1cnc(-c2nccn2C)nc1O [drawing 1815] | 51 to 75 |
| Nc1cccc(-c2csc3c(O)nc(-c4ccccn4)nc23)n1 [drawing 1816] | 76 to 100 |
| Cc1sc2c(O)nc(-c3ccccn3)nc2c1-c1ccccc1Cl [drawing 1817] | 76 to 100 |
| COc1cnc(-c2cnc[nH]2)nc1O [drawing 1818] | 0 |
| COc1cnc(CNC(=O)c2csc3nc(-c4ccccn4)nc(N)c23)[nH]c1=O [drawing 1819] | 0 |
